Laboratory results as given in US7371748B2, “Benzothiazole derivatives” (Hoffman-La Roche Inc., priority 2003, dated 2008).
Like-named read-outs stand apart in the source and are kept apart here.

Legend:
[1] = target: T1, human adenosine A2A receptor (Homo sapiens, UniProt P29274); assay: [3H]-SCH-58261 binding assay, human adenosine A2A receptor; conditions: human A2A receptor recombinantly expressed in CHO cell membranes, [3H]-SCH-58261 1 nM, Ki from IC50 by Cheng-Prussoff equation
T1 construct: expressed in transfected cells; host or cells: CHO cells, Semliki Forest virus expression system; membrane preparation
T1 sequence (P29274 whole entry): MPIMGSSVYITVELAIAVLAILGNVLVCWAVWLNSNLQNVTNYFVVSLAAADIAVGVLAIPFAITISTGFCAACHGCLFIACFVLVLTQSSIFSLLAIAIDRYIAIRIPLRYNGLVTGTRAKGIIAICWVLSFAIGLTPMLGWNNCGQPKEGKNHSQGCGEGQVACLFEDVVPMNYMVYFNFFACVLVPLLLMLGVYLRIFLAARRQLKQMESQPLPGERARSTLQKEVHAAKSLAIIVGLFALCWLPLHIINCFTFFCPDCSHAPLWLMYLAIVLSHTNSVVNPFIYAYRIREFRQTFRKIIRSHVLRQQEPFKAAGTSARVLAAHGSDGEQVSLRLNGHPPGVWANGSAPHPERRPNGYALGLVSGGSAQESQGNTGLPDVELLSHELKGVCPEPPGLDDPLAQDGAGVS
Protocol: Human Adenosine A2A Receptor
The human adenosine A2A receptor was recombinantly expressed in chinese hamster ovary (CHO) cells using the semliki forest virus expression system. Cells were harvested, washed twice by centrifugation, homogenized and again washed by centrifugation. The final washed membrane pellet was suspended in a Tris (50 mM) buffer containing 120 mM NaCl, 5 mM KCl, 2 mM CaCl2 and 10 mM MgCl2 (pH 7.4) (buffer A). The [^3H]-SCH-58261 (Dionisotti et al., […], Br J Pharmacol 121, 353; 1 nM) binding assay was carried out in 96-well plates in the presence of 2.5 μg of membrane protein, 0.5 mg of Ysi-poly-1-lysine SPA beads and 0.1 U adenosine deaminase in a final volume of 200 μl of buffer A. Non-specific binding was defined using xanthine amine congener (XAC; 2 μM). Compounds were tested at 10 concentrations from 10 μM-0.3 nM. All assays were conducted in duplicate and repeated at least two times. Assay plates were incubated for 1 hour at room temperature before centrifugation and then bound ligand determined using a Packard Topcount scintillation counter. IC50 values were calculated using a non-linear curve fitting program and Ki values calculated using the Cheng-Prussoff equation.

[2] = read-out: Ha2 (pKi) (converted)

Row | Compound | Ki [1, 2] [nM] | melting point [°C] | Ki ([1]; Ha2 (pKi)) [nM]
1 | COc1ccc(C2CCOCC2)c2sc(NC(=O)N(C)C3CC4CCC3O4)nc12 (racemic) [Example 26, (rac)-(exo)-3-[4-Methoxy-7-(tetrahydro-pyran-4-yl)-benzothiazol-2-yl]-1-methyl-1-(7-oxa-bicyclo[2.2.1]hept-2-yl)-urea] | 1 | 197 to 200 | –
2 | COc1ccc(C2CCOCC2)c2sc(NC(=O)N(C)C3CC4CCC3O4)nc12 (single isomer, unassigned) [Example 55, (exo)-(+)-3-[4-Methoxy-7-(tetrahydro-pyran-4-yl)-benzothiazol-2-yl]-1-methyl-1-(7-oxa-bicyclo[2.2.1]hept-2-yl)-urea] | 1.26 | 185 to 188 | –
3 | COc1ccc(C2CCOCC2)c2sc(NC(=O)N(C)C3CC4CCC3O4)nc12 (single isomer, unassigned) [Example 56, (exo)-(−)-3-[4-Methoxy-7-(tetrahydro-pyran-4-yl]-benzothiazol-2-yl)-1-methyl-1-(7-oxa-bicyclo[2.2.1]hept-2-yl)-urea] | 3.16 | 155 to 190 | –
4 | COc1ccc(C2COCCOC2)c2sc(NC(=O)c3ccc(C)s3)nc12 [Example 8, 5-Methyl-thiophene-2-carboxylic acid (7-[1,4]dioxepan-6-yl-4-methoxy-benzothiazol-2-yl)-amide] | 1 | – | –
5 | COc1ccc(C(=O)Nc2nc3c(OC)ccc(C4COCCOC4)c3s2)cc1 [Example 9, N-(7-[1,4]Dioxepan-6-yl-4-methoxy-benzothiazol-2-yl)-4-methoxy-benzamide] | 2 | – | –
6 | COc1ccc(C2COCCOC2)c2sc(NC(=O)c3ccc(F)cc3)nc12 [Example 10, N-(7-[1,4]Dioxepan-6-yl-4-methoxy-benzothiazol-2-yl)-4-fluoro-benzamide] | 1.26 | – | –
7 | COc1ccc(C2COCCOC2)c2sc(NC(=O)C3CCCCC3)nc12 [Example 11, Cydohexanecarboxylic acid (7-[1,4]dioxepan-6-yl-4-methoxy-benzothiazol-2-yl)-amide] | 2.51 | – | –
8 | COc1ccc(C2COCCOC2)c2sc(NC(=O)c3cncn3C)nc12 [Example 14, 3-Methyl-3H-imidazole-4-carboxylic acid (7-[1,4]dioxepan-6-yl-4-methoxy-benzothiazol-2-yl)-amide] | 1 | – | –
9 | COc1ccc(C2COCCOC2)c2sc(NC(=O)c3ccncc3)nc12 [Example 15, N-(7-[1,4]Dioxepan-6-yl-4-methoxy-benzothiazol-2-yl)-isonicotinamide] | 2 | – | –
10 | COc1ccc(C2CCOCC2)c2sc(NC(=O)N(C)C3CCN(C)CC3)nc12 [Example 20, 3-[4-Methoxy-7-(tetrahydro-pyran-4-yl)-benzothiazol-2-yl]-1-methyl-1-(1-methyl-piperidin-4-yl)-urea] | 2.51 | 152 to 155 | –
11 | COc1ccc(C2CCOCC2)c2sc(NC(=O)N(C)[C@H]3CC[C@H](O)CC3)nc12 [Example 21, trans-1-(4-Hydroxy-cyclohexyl)-3-[4-methoxy-7-(tetrahydro-pyran-4-yl)-benzothiazol-2-yl]-1-methyl-urea] | 2.51 | 160 | –
12 | COc1ccc(C2CCOCC2)c2sc(NC(=O)N(C)[C@H]3CC[C@@H](O)CC3)nc12 [Example 22, cis-1-(4-Hydroxy-cyclohexyl)-3-[4-methoxy-7-(tetrahydro-pyran-4-yl)-benzothiazol-2-yl]-1-methyl-urea] | 2.51 | 191 to 193 | –
13 | COc1ccc(C2CCOCC2)c2sc(NC(=O)N(C)[C@H]3CC[C@@](C)(O)CC3)nc12 [Example 23, 1-(4-cis-Hydroxy-4-methyl-cyclohexyl)-3-[4-methoxy-7-(tetrahydro-pyran-4-yl)-benzothiazol-2-yl]-1-methyl-urea] | 2 | 211 to 213 | –
14 | COc1ccc(C2CCOCC2)c2sc(NC(=O)N(C)C3CCOCC3)nc12 [Example 24, 3-[4-Methoxy-7-(tetrahydro-pyran-4-yl)-benzothiazol-2-yl]-1-methyl-1-(tetrahydro-pyran-4-yl)-urea] | 3.16 | 237 to 238 | –
15 | COc1ccc(C2CCOCC2)c2sc(NC(=O)N(C)CC3CCOC3)nc12 (stereo not drawn) [Example 25, 3-[4-Methoxy-7-(tetrahydro-pyran-4-yl)-benzothiazol-2-yl]-1-methyl-1-(tetrahydro-furan-3-ylmethyl)-urea] | – | 185 to 186 | –
16 | COc1ccc(C2CCOCC2)c2sc(NC(=O)N3CCC4(CC3)OCCO4)nc12 [Example 29, 1,4-Dioxa-8-aza-spiro[4.5]decane-8-carboxylic acid [4-methoxy-7-(tetrahydro-pyran-4-yl)-benzothiazol-2-yl]-amide] | – | – | 1.58

Row | Compound | Ki [1, 2] [nM] | melting point [°C] | Ki ([1]; Ha2 (pKi)) [nM]
17 | COc1ccc(C2CCOCC2)c2sc(NC(=O)N3CCC(C)(O)CC3)nc12 [Example 30, 4-Hydroxy-4-methyl-piperidine-1-carboxylic acid [4-methoxy-7-(tetrahydro-pyran-4-yl)-benzothiazol-2-yl]-amide] | 1.26 | 90 to 95 | –
18 | COc1ccc(C2CCOCC2)c2sc(NC(=O)N3C[C@@H]4C[C@H]3CO4)nc12 [Example 31, (1S,4S)-2-Oxa-5-aza-bicyclo[2.2.1]heptane-5-carboxylic acid [4-methoxy-7-(tetrahydro-pyran-4-yl)-benzothiazol-2-yl]-amide] | 1.26 | 193 to 197 | –
19 | COc1ccc(C2CCOCC2)c2sc(NC(=O)N3CC4CCC3CC4)nc12 [Example 32, 2-Aza-bicyclo[2.2.2]octane-2-carboxylic acid [4-methoxy-7-(tetrahydro-pyran-4-yl)-benzothiazol-2-yl]-amide] | 2 | 237 to 239 | –
20 | COc1ccc(C2CCOCC2)c2sc(NC(=O)CC3CCOCC3)nc12 [Example 33, N-[4-Methoxy-7-(tetrahydro-pyran-4-yl)-benzothiazol-2-yl]-2-(tetrahydro-pyran-4-yl)-acetamide] | 1.58 | 218 to 220 | –
21 | COc1ccc(C2CCOCC2)c2sc(NC(=O)c3ccnc(CN4CCOCC4)c3)nc12 [Example 34, N-[4-Methoxy-7-(tetrahydro-pyran-4-yl)-benzothiazol-2-yl]-2-morpholin-4-ylmethyl-isonicotinamide] | 2 | 199 to 201 | –
22 | COCCNCc1cc(C(=O)Nc2nc3c(OC)ccc(C4CCOCC4)c3s2)ccn1 [Example 35, 2-[(2-Methoxy-ethylamino)-methyl]-N-[4-methoxy-7-(tetrahydro-pyran-4-yl)-benzothiazol-2-yl]-isonicotinamide] | 1.58 | 93 to 95 | –
23 | COc1ccc(C2COCCOC2)c2sc(NC(=O)c3ccc(CCl)cc3)nc12 [Example 39, 4-Chloromethyl-N-(7-[1,4]dioxepan-6-yl-4-methoxy-benzothiazol-2-yl)-benzamide] | 1.58 | – | –
24 | COc1ccc(C2COCCOC2)c2sc(NC(=O)c3cnn(C)c3)nc12 [Example 43, 1-Methyl-1H-pyrazole-4-carboxylic acid (7-[1,4]dioxepan-6-yl-4-methoxy-benzothiazol-2-yl)-amide] | 0.398 | – | –
25 | CCC(=O)N(C)Cc1ccc(C(=O)Nc2nc3c(OC)ccc(C4COCCOC4)c3s2)cc1 [Example 44, N-(7-[1,4]Dioxepan-6-yl-4-methoxy-benzothiazol-2-yl)-4-[(methyl-propionyl-amino)-methyl]-benzamide] | 2.51 | – | –
26 | COc1ccc(C2COCCOC2)c2sc(NC(=O)c3ccnc(N4CCCC4)c3)nc12 [Example 46, N-(7-[1,4]Dioxepan-6-yl-4-methoxy-benzothiazol-2-yl)-2-pyrrolidin-1-yl-isonicotinamide] | 2.51 | – | –
27 | COc1ccc(C2COCCOC2)c2sc(NC(=O)c3ccnc(CN4CCCC4)c3)nc12 [Example 47, N-(7-[1,4]Dioxepan-6-yl-4-methoxy-benzothiazol-2-yl)-2-pyrrolidin-1-ylmethyl-isonicotinamide] | – | 108 to 111 | –
28 | COCCN(C)Cc1cc(C(=O)Nc2nc3c(OC)ccc(C4COCCOC4)c3s2)ccn1 [Example 48, N-(7-[1,4]Dioxepan-6-yl-4-methoxy-benzothiazol-2-yl)-2-{[(2-methoxy-ethyl)-methyl-amino]-methyl}-isonicotinamide] | – | 100 to 107 | –
29 | COc1ccc(C2CCOCC2)c2sc(NC(=O)[C@H]3CCCO3)nc12 [Example 51, (R)-Tetrahydro-furan-2-carboxylic acid [4-methoxy-7-(tetrahydro-pyran-4-yl)-benzothiazol-2-yl]-amide] | – | 158 to 161 | –
30 | COc1ccc(C2CCOCC2)c2sc(NC(=O)N(C)C3CCN(N(C)C)CC3)nc12 [Example 53, 1-(1-Dimethylamino-piperidin-4-yl)-3-[4-methoxy-7-(tetrahydro-pyran-4-yl)-benzothiazol-2-yl]-1-methyl-urea] | – | 167 to 170 | –
31 | COc1ccc(C2CCOCC2)c2sc(NC(=O)CC3CCCO3)nc12 (stereo not drawn) [Example 54, N-[4-Methoxy-7-(tetrahydro-pyran-4-yl)-benzothiazol-2-yl]-2-(tetrahydro-furan-2-yl)-acetamide] | – | 170 to 174 | –
